The values that follow are results of earlier work, collected in patent US20170042890A1, “METHODS OF REDUCING DECLINE IN VITAL CAPACITY” (Cytokinetics, Inc., priority 2014, published 2017).

For one series, the system named is ALS. Particulars: cited from earlier work.
For series [1] the following is noted: administered concomitantly with tirasemtiv; prior studies; cited from earlier work.

With `Nc1nc2ccc(OC(F)(F)F)cc2s1` [riluzole], the “Effect on measurable parameters of neuromuscular or pulmonary function” value in the series on ALS was “does not improve”. The Riluzole exposure entry in series [1] is listed as “approximately doubled”.
